Here are results for two molecules from US7601713B2, “Kinase inhibitors and their uses” (Rigel Pharmaceuticals, Inc., priority 2005, dated 2009).

One assay has as its target T1, Axl kinase (Homo sapiens, UniProt P30530).
T1 construct: endogenous in cells; host or cells: HeLa cells
T1 sequence (P30530 26-894): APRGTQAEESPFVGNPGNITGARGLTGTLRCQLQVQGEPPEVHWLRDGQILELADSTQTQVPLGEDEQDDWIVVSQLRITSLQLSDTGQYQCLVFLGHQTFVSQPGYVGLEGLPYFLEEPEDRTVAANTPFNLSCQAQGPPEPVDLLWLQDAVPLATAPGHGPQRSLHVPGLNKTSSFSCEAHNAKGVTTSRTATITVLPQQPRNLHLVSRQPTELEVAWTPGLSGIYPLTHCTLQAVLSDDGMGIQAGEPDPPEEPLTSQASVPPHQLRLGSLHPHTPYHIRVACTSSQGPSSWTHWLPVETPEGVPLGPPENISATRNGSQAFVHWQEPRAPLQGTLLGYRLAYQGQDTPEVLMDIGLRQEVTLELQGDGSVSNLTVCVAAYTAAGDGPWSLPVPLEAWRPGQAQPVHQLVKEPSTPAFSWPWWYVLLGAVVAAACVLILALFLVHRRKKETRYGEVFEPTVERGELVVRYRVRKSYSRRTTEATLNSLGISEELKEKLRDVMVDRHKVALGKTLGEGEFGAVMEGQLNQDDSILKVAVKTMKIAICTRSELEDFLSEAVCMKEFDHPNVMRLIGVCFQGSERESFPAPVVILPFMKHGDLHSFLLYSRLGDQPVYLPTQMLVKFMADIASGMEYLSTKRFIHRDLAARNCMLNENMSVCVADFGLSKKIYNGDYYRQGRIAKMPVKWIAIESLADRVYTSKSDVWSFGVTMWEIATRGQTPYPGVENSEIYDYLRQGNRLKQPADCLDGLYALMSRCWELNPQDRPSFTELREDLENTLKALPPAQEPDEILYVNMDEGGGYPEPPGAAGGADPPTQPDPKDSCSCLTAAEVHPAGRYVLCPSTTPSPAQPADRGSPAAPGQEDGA
The assay is described as follows: Phospho-Akt in-cell Western assay (Axl antibody cross-linking, Hela cells). The note with it: phospho-Akt readout, read-out: IC50, inhibition of Axl kinase. The format is cell-based. The method in brief:
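HeLa cells were starved 24 h in 0.5% FCS with 500 ng/mL Axl/Fc, pretreated with compound 1 h at 37 °C, then stimulated 5 min by cross-linked anti-Axl antibodies. Phospho-Akt was detected by in-cell chemiluminescent immunoassay and normalized to crystal violet cell number at 590 nm.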

The next assay concerns the target Syk kinase (Homo sapiens, UniProt P43405). The assay is described as follows: cell-based Syk assay. The note with it: read-out: IC50, inhibition of Syk kinase.
A further assay concerns the target PRK1 kinase (Homo sapiens, UniProt Q16512). Description: PRK1 kinase inhibition. The format is biochemical.
The next assay addresses Aurora kinase B (Homo sapiens, UniProt Q96GD4). The note with it: compared to the (1S,2S,3R,4R) diastereomers; cited from earlier work.
For the next assay, the system named is tumor cell lines. The note with it: cited from earlier work.

Chain of Aurora kinase B (Q96GD4 whole entry, species assumed): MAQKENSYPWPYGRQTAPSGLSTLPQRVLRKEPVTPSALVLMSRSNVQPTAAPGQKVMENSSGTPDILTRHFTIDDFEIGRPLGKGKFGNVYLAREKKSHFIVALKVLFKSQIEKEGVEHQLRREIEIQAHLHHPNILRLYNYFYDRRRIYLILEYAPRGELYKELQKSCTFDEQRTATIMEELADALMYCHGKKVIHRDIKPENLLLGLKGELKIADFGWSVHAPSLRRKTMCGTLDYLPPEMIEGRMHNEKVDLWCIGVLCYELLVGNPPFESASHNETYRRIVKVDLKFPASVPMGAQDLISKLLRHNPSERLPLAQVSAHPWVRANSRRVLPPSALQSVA
Chain of PRK1 kinase (Q16512 whole entry): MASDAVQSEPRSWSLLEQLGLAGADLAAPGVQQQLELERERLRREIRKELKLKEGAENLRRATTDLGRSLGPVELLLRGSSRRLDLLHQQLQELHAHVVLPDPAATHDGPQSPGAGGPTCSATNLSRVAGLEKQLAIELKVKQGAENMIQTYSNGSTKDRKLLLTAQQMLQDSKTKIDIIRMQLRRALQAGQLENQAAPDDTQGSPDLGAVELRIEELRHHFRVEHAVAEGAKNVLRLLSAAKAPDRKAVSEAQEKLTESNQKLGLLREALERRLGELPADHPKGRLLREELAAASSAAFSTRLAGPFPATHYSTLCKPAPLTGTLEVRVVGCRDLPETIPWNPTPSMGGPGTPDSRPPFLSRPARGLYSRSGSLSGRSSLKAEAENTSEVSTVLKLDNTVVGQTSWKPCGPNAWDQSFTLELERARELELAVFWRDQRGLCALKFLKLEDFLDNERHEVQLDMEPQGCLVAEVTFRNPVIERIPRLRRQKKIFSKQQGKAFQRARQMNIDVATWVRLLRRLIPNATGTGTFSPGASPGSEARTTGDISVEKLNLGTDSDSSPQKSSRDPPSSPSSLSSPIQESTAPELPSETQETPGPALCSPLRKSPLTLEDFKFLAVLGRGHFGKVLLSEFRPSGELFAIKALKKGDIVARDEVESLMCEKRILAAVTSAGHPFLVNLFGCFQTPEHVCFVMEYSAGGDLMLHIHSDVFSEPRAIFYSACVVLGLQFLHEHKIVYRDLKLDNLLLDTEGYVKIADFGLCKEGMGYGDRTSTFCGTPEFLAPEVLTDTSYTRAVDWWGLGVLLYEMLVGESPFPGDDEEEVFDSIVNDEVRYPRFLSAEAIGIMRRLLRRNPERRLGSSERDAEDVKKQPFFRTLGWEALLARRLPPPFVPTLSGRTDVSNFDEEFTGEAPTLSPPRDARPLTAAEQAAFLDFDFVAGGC

Consider `NC(=O)C1C2C=CC(C2)C1Nc1nc(Nc2cccc(CN3CCOCC3)c2)nc2[nH]ccc12` (racemic) [Compound 221, Racemic-(2-exo,3-exo)-N4-(3-aminocarbonylbicyclo [2.2.1]hept-5-en-2-yl)-N2-(3-morpholin-4-yl-methylphenyl)-1H-pyrrolo[2,3-d]pyrimidine-2,4-diamine], for which the concentration for half-maximal inhibition (IC50) on Axl kinase, at Syk kinase and at PRK1 kinase was below 5 µM throughout.
For the molecule `Cc1cc(Nc2ncc(F)c(NC3C4C=CC(C4)C3C(N)=O)n2)ccc1N1CCN(C)CC1` [(1R,2R,3S,4S) diastereomer, N4-(3-aminocarbonylbicyclo [2.2.1]hept-5-en-2-yl)-5-fluoro-N2-[3-methyl-4-(4-methylpiperazin-1-yl)phenyl]-2,4-pyrimidinediamine], the “inhibition of Aurora kinase B in cells” value at Aurora kinase B is recorded as “similarly superior results”. The “potency of (1R,2R,3S,4S) diastereomer relative to (1S,2S,3R,4R) diastereomer” value with tumor cell lines is given as “approximately 1000 fold”. For the same molecule, the “IC50s against tumor cell lines” value in the assay with tumor cell lines (isolated stereoisomers) is recorded as “nanomolar range”.

By IC50 is commonly meant the point on the concentration scale where inhibition reaches its midpoint.
